Source: article PMC12207590, “Substrate Specificity of the Organic Cation Transporters MATE1 and MATE2K and Functional Overlap with OCT1 and OCT2” (Journal of Medicinal Chemistry, 2025)
Read-outs that look alike come from different tables or passages of the source.

Tests used:
[1] = molecular target: T1, MATE1 (Homo sapiens, UniProt Q96FL8); experiment: Uptake ratio in MATE1-overexpressing HEK293 cells vs empty vector (2.5 μM, 1 min, HPLC-MS/MS); format: cell-based
T1 sequence (Q96FL8 1-570): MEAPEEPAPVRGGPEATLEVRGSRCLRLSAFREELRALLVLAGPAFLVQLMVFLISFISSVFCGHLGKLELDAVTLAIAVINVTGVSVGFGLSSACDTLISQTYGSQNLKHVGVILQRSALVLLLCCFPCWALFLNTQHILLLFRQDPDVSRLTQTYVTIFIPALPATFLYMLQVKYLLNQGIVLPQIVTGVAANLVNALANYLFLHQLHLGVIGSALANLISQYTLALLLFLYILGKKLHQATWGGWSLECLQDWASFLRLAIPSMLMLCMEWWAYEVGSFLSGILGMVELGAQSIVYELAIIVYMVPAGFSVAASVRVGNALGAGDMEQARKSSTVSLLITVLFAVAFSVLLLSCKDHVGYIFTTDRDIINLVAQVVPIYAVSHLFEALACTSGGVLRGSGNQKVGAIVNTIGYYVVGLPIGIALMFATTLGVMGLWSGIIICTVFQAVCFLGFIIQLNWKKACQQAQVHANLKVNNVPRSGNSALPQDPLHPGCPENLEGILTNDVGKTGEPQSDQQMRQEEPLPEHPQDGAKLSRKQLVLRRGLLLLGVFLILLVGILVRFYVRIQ

[2] = molecular target: MATE2K (Homo sapiens, UniProt Q86VL8); experiment: Uptake ratio in MATE2K-overexpressing HEK293 cells vs empty vector (2.5 μM, 1 min, HPLC-MS/MS); format: cell-based
MATE2K, sequence (Q86VL8 1-566 isoform Q86VL8-3): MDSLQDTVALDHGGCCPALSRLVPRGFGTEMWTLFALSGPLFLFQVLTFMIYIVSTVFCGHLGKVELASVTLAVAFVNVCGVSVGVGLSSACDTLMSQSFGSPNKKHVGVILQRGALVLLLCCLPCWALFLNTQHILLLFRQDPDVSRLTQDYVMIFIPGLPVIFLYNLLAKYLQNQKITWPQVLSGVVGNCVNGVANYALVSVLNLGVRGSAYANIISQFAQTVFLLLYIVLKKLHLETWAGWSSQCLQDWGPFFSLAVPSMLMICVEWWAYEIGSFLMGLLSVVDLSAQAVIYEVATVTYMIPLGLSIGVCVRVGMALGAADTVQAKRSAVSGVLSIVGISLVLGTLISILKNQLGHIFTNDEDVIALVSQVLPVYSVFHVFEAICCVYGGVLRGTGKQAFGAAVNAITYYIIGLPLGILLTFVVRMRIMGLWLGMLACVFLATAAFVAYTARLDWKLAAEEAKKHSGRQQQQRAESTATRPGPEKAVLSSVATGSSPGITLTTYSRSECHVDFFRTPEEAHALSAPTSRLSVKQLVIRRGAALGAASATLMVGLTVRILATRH

[3] = fold uptake over empty vector, 2.5 μM, 1 min
[4] = uptake ratio MATE1-overexpressing vs empty-vector HEK293 cells, 2.5 μM, 1 min, mean
[5] = uptake ratio MATE2K-overexpressing vs empty-vector HEK293 cells, 2.5 μM, 1 min, mean
[6] = mean ratio of uptake in MATE1-overexpressing HEK293 cells vs empty vector, 2.5 μM, 1 min
[7] = mean ratio of uptake in MATE2K-overexpressing HEK293 cells vs empty vector, 2.5 μM, 1 min

Structure (SMILES) | MATE1 ratio [1] | MATE2K ratio [2] | MATE1 ratio [1, 3] | MATE2K ratio [2, 3] | MATE1 (uptake ratio) [1] | MATE2 (uptake ratio) [2] | other results
NCc1ccc(O)cc1 | 1.48 | 1.09 | – | – | – | – | –
COc1ccc2[nH]cc(C[C@H](N)C(=O)O)c2c1 | – | – | 0.89 | 1.10 | – | – | –
OCCc1ccccc1 | – | – | 1.39 | 1.20 | – | – | –
CNC[C@H](O)c1ccc(O)c(O)c1 (racemic) [Epinephrine (rac), Epinephrine] | – | – | 18.70 | 3.27 | – | – | –
C[C@H](NCCc1ccc(O)cc1)[C@H](O)c1ccc(O)cc1 (racemic) [Ritodrine] | – | – | 8.03 | 2.23 | – | – | MATE1 [1, 4]: 8.03; MATE2 [2, 5]: 2.23
N[C@@H]1C[C@H]1c1ccccc1 (racemic) [Tranylcypromine] | – | – | – | – | – | – | MATE1 [1]: 1.45; MATE2 [2]: 1.98
CC(C)(C)NCC(O)COc1nsnc1N1CCOCC1 (stereo in doubt) [Timolol (R)] | – | – | – | – | – | – | MATE1 [1, 4]: 0.94; MATE2 [2, 5]: 0.96
Cc1ccc(O)c(C(CCN(C(C)C)C(C)C)c2ccccc2)c1 (stereo in doubt) [Tolterodine (S)] | – | – | – | – | – | – | MATE1 [1]: 1.16
N=C(Nc1ccccc1)Nc1ccccc1 [1,3-Diphenylguanidine] | 1.53 | 1.27 | – | – | 1.53 | 1.27 | –
N=C(N)NC(=N)Nc1ccc(Cl)cc1 [1-(4-Chlorophenyl)biguanide] | 6.97 | 3.82 | – | – | 6.97 | 3.82 | –
C[n+]1ccc(-c2ccccc2)cc1 [1-Methyl-4-phenylpyridinium] | 23.35 | 9.05 | – | – | 23.35 | 9.05 | MATE1 ratio in this study [1]: 23.35; MATE2K ratio in this study [2]: 9.05
Cn1c(=O)[nH]c2nc[nH]c2c1=O [1-Methylxanthine] | 1.08 | 0.96 | – | – | 1.08 | 0.96 | –
CCC(Cc1ccc2c(c1)OCO2)NC (stereo not shown) [2-Methylamino-1-(3,4-methylendioxyphenyl)butan] | 1.35 | 1.24 | – | – | 1.35 | 1.24 | –
CCC(C)C(=O)OC(CC(=O)[O-])C[N+](C)(C)C (stereo not shown) [2-Methylbutyrylcarnitine] | – | – | 0.61 | 1.24 | – | – | MATE1 (uptake ratio) [1, 6]: 0.61; MATE2 (uptake ratio) [2, 7]: 1.24
NCCc1ccccc1 [2-Phenylethylamine] | – | – | 1.39 | 1.43 | – | – | MATE1 (uptake ratio) [1, 6]: 1.39; MATE2 (uptake ratio) [2, 7]: 1.43
COc1cc(CCN)ccc1O [3-Methoxy-p-tyramine] | 4.05 | 1.39 | – | – | 4.05 | 1.39 | –
N=C(N)N1Cc2ccccc2C(O)C1 (stereo not shown) [4-Hydroxydebrisoquine] | – | – | 9.59 | 3.34 | – | – | MATE1 (uptake ratio) [1, 6]: 9.59; MATE2 (uptake ratio) [2, 7]: 3.34
Cc1cc(O)cc(C)c1OCC(C)N (stereo not shown) [4-Hydroxymexiletine] | – | – | 1.67 | 1.42 | – | – | MATE1 (uptake ratio) [1, 6]: 1.67; MATE2 (uptake ratio) [2, 7]: 1.42
COc1ccc(CCN)cc1O [4-Methoxy-m-tyramine] | 3.09 | 1.19 | – | – | 3.09 | 1.19 | –
COc1ccc(CCN)cc1 [4-Methoxyphenethylamine] | 1.40 | 1.23 | – | – | 1.4 | 1.23 | –
NCCc1c[nH]c2c(O)cc(O)cc12 [5,7-Dihydroxytryptamine] | 1.13 | 0.84 | – | – | 1.13 | 0.84 | –

Structure (SMILES) | MATE1 ratio [1] | MATE2K ratio [2] | MATE1 ratio [1, 3] | MATE2K ratio [2, 3] | MATE1 (uptake ratio) [1] | MATE2 (uptake ratio) [2] | other results
Nc1ccc2[nH]ncc2c1 [5-Aminoindazole] | – | – | 0.99 | 0.73 | – | – | MATE1 (uptake ratio) [1, 6]: 0.99; MATE2 (uptake ratio) [2, 7]: 0.73
NCCc1cc(O)c(O)cc1O [6-Hydroxydopamine] | 1.05 | 1.24 | – | – | 1.05 | 1.24 | –
Oc1ccc2c3c1O[C@H]1[C@H](O)CC[C@@]4(O)[C@@H](C2)N(CC2CC2)CC[C@]314 [6-beta-Naltrexol] | 1.20 | 1.20 | – | – | 1.2 | 1.2 | –
CNCC/C=C1/c2ccccc2CC(O)c2ccccc21 (stereo not shown) [10-OH-Nortriptyline] | 1.17 | 1.14 | – | – | 1.17 | 1.14 | –
C[C@]12CCC(=O)C=C1CC[C@@H]1[C@@H]2CC[C@@]2(C)[C@H]1CC[C@]2(C)O [17-Alpha-methyltestosterone] | 1.17 | 1.22 | – | – | 1.17 | 1.22 | –
N=C(N)NCCC[C@H](NC(=O)c1ccc2ccccc2c1O)C(=O)N1CCC[C@H]1C(N)=O [APC366] | 19.12 | 1.41 | – | – | 19.12 | 1.41 | –
Nc1nc(NC2CC2)c2ncn([C@H]3C=C[C@@H](CO)C3)c2n1 [Abacavir] | – | – | 0.94 | 1.25 | – | – | MATE1 (uptake ratio) [1, 6]: 0.94; MATE2 (uptake ratio) [2, 7]: 1.25
CCN1CCN(Cc2ccc(Nc3ncc(F)c(-c4cc(F)c5nc(C)n(C(C)C)c5c4)n3)nc2)CC1 [Abemaciclib] | – | – | 1.06 | 1.01 | – | – | MATE1 (uptake ratio) [1, 6]: 1.06; MATE2 (uptake ratio) [2, 7]: 1.01
CCCS(=O)(=O)N[C@H]1C[C@@H](N(C)c2ncnc3[nH]ccc23)C1 [Abrocitinib] | – | – | 1.09 | 1.19 | – | – | MATE1 (uptake ratio) [1, 6]: 1.09; MATE2 (uptake ratio) [2, 7]: 1.19
CC(=O)OC1CN2CCC1CC2 (stereo not shown) [Aceclidine] | 1.26 | 1.08 | – | – | 1.26 | 1.08 | –
O=C(O[C@H]1C[N+]2(CCCOc3ccccc3)CCC1CC2)C(O)(c1cccs1)c1cccs1 [Aclidinium (S), Aclidinium] | – | – | 5.36 | 1.64 | – | – | MATE1 (uptake ratio) [1, 6]: 5.36; MATE2 (uptake ratio) [2, 7]: 1.64
C#CCN(C)[C@H](C)Cc1ccccc1 [Selegiline (S), Selegiline] | – | – | – | – | – | – | MATE2 [2]: 1.08
CCN1CCC[C@H]1CNC(=O)c1cc(S(N)(=O)=O)ccc1OC [Sulpiride (S)] | – | – | – | – | – | – | MATE2 [2]: 18.54
CCOc1ccccc1OCCN[C@H](C)Cc1ccc(OC)c(S(N)(=O)=O)c1 [Tamsulosin] | – | – | – | – | – | – | MATE1 [1, 4]: 1.4
NCCS(=O)(=O)O [Taurine] | – | – | – | – | – | – | MATE2 [2, 5]: 1.2
NC(=O)[C@@H]1CCCN1C(=O)[C@H](Cc1cnc[nH]1)NC(=O)[C@@H]1CCC(=O)N1 [Thyrotropin-Releasing-Hormon] | – | – | – | – | – | – | MATE1 [1, 4]: 1.71
Cc1ccc(O)c([C@H](CCN(C(C)C)C(C)C)c2ccccc2)c1 [Tolterodine (R)] | – | – | – | – | – | – | MATE2 [2]: 1.06
NCCNCCNCCN [Triethylentetramine] | – | – | – | – | – | – | MATE1 [1, 4]: 0.65
NCCc1c[nH]c2ccccc12 [Tryptamine] | – | – | – | – | – | – | MATE1 [1]: 2.21
Cc1cc(C(C)(C)C)cc(C)c1CC1=NCCN1 [Xylometazoline] | – | – | – | – | – | – | MATE1 [1]: 1.55
